The values below come from ChEMBL document CHEMBL5149996, “Structure-Based Optimization and Discovery of M3258, a Specific Inhibitor of the Immunoproteasome Subunit LMP7 (β5i)” (J Med Chem, 2021).

The source made the active and inactive calls. The rule behind the calls is not given here.

Data set [1] in a line: Clearance in mouse hepatocytes measured per million of cells. The class given is ADME, cell-based, Hepatocyte. The settings on record: read-out: CLH.
Data set [2] addresses T1, Proteasome subunit beta type-10 (Homo sapiens, UniProt P40306).
T1 sequence (P40306 whole entry): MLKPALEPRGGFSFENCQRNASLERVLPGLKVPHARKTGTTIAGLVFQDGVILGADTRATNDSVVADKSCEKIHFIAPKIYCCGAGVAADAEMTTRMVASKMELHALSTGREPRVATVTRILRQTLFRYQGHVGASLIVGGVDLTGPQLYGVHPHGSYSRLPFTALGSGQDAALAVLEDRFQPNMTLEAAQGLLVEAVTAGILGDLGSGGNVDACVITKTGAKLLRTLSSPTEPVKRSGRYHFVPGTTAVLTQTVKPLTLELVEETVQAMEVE
In words: Inhibition of human 20S immunoproteasome beta-2i subunit using Ac-RLR-AMC as substrate preincubated for 2 hrs followed by substrate addition and measured after 1 hr by fluorescence intensity assay.

Data set [3] in a line: Volume of distribution at steady state in iv dosed mouse. The class given is ADME, organism-based. Particulars: in vivo, read-out: Vdss.
The test system of data set [4] is 20S immunoproteasome beta-5i subunit. The experiment in a line: Selectivity ratio of IC50 for cytotoxicity against human primary hepatocytes to IC50 for inhibition of 20S immunoproteasome beta-5i subunit in human PBMC. The class given is toxicity. The settings on record: read-out: Ratio IC50.
Data set [5] can be described thus: Clearance in human hepatocytes measured per million of cells. The class given is ADME, cell-based, Hepatocyte. Particulars: read-out: CLH.
The target of data set [6] is T2, Proteasome Macropain subunit MB1 (Homo sapiens, UniProt P28074).
T2 sequence (P28074 whole entry): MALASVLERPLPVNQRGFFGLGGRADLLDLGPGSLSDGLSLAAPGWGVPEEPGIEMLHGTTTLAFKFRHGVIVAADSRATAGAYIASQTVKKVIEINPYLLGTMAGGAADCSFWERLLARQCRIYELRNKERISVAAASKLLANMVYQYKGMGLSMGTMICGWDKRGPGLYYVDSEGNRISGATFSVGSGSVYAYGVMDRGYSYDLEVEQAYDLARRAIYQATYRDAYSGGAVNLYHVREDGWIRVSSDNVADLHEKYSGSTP
In words: Inhibition of 20S proteasome beta5 subunit in human A549 cells using Suc-LLVY-luciferin substrate preincubated for 2 hrs followed by substrate addition and measured after 30 mins by luminometric analysis. In kind it is cell-based.

Data set [7] relates to 20S immunoproteasome beta-5i subunit. The experiment in a line: Selectivity ratio of IC50 for cytotoxicity against human HepG2 cells to IC50 for inhibition of 20S immunoproteasome beta-5i subunit in human PBMC. The class given is toxicity, cell-based. Particulars: read-out: Ratio IC50.
In data set [8] the test system is U-266. The experiment in a line: Antitumor activity against human U266B1 cells xenografted in H2d Rag2 mouse assessed as reduction in tumor volume at 1 mg/kg, po administered once daily and measured for 21 days. The class given is functional, organism-based. The settings on record: time 21.0 day. A general note: In xenograft studies the graft and the host belong to different species.

Data set [9] concerns U-266. The experiment in a line: Antitumor activity against human U266B1 cells xenografted in H2d Rag2 mouse assessed as reduction in tumor volume at 0.3 mg/kg, po administered once daily and measured for 21 days. In kind it is functional, organism-based. The settings on record: time 21.0 day.
The nature of data set [10]: Kinetic solubility of the compound. In kind it is physicochemical. The settings on record: read-out: Kinetic_solubility.
For data set [11], the system named is U-266. The experiment in a line: In vivo inhibition of LMP7 activity in tumor lysates of H2d Rag2 mouse xenografted with human U266B1 cells at 1 mg/kg, po administered as single dose using (Ac-ANW)2R110 as substrate measured up to 14 hrs by fluorescence intensity assay. The class given is functional, organism-based. The settings on record: Neoplasm.

With `O=C(N[C@@H](Cc1coc2ccccc12)B(O)O)[C@@H]1C[C@H]2CC[C@@H]1O2`, the hepatocyte CLint in data set [1] was 15 µL/min/1e6 cells; in data set [5] it was 6.2 µL/min/1e6 cells. Also, the IC50 was greater than 30000 nM in data set [2] and 1040 nM in data set [6]. Also, in data set [3], the Vd came to 0.47 L/kg. The selectivity ratio in [4] and in data set [7] was 10000 in each case. For the same compound, the result in the data set on U-266 [8] and in the data set on U-266 [9] was Active. For the same compound, the solubility kinetic in [10] is greater than 200 µM. In addition, the inhibition entry in the data set on U-266 [11] is “Active”.

Usually IC50 stands for the concentration that gives 50% inhibition. A high value points to weaker potency.
